Each structure is given as a SMILES string.

Assay [1] concerns the target T1, CCK-1 receptor (Homo sapiens, UniProt P32238).
T1 construct: expressed in transfected cells; host or cells: CHO-K1
T1 sequence (P32238 1-428): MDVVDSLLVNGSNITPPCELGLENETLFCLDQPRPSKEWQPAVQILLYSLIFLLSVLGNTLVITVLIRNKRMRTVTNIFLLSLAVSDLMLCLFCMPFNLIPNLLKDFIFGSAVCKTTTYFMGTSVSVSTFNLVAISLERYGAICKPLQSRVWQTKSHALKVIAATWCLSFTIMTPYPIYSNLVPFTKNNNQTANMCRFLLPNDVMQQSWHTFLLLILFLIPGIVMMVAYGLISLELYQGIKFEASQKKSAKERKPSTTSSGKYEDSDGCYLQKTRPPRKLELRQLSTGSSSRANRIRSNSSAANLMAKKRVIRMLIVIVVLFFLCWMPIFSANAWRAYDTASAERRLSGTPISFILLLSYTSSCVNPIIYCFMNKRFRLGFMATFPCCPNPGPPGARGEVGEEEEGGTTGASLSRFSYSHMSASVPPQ
In words: CCK1 binding assay ([125I]-BH-CCK-8S displacement, CHO-K1 membranes). The conditions noted are these: membranes of CHO-K1 cells stably transfected with the CCK-1 receptor; 20 pM [125I]-BH-CCK-8S; 0.3 μM PD-134,308 present; 60 min at 21±3° C.; read-out: CCK1 pKi (converted). The protocol:
1. CCK1 Assay Development and Data Generation
CHO-K1 cells that had undergone stable transfection with the CCK-1 receptor were grown in DMEM supplemented with L-glutamine (2 mM), penicillin (50 units/mL) and streptomycin (50 μg/mL). Cells were cultured under continuous G418 selection (2 mM) and were harvested using a rubber cell scraper. CHO-K1 cells were sub-cultured a maximum of ten times before being reseeded from the original stocks.
Membranes were prepared from the stably transfected CHO-K1 cells. Frozen cell pellets (−40° C.) were thawed in 14 mL of buffer A (10 mM HEPES, 130 mM NaCl, 4.7 mM KCl, 5 mM MgCl, 1 mM EGTA and 15.4 mg/100 mL bacitracin at pH 7.2), adapted from Harper et al. (Br. J. Pharmacol. 1996, 118:1717-1726). The thawed pellets were homogenized using a Polytron PT-10 (7×1 s). The homogenates were centrifuged for 5 min at 1500 rpm (600×g), and the resulting pellets were discarded. The supernatants were re-centrifuged in order to collect the receptor-membrane pellets (25 min 15,000 rpm; 39,800×g), which were re-suspended in buffer A.
All assays were conducted in 96-well plates (GF/B millipore filter plates) using buffer A, with 0.3 μM PD-134,308, for the dilutions. The CCK-2 receptor ligand was included to eliminate the contribution of this receptor subtype to the binding. For the optimal cell number determination experiments 20 pM [^125I]-BH-CCK-8S (50 μL […] solution) was incubated with a range of cell concentrations ([…] to 12.5×10^5 cells/well) in a total volume of 150 μL. Total binding of [^125I]-BH-CCK-8S was determined in the presence of 15 μL of buffer A. Non-specific binding of [^125I]-BH-CCK-8S was determined in the presence of 15 μL of 100 μM 2-naphthalenesulphonyl L-aspartyl-(2-phenethyl)amide (2-NAP: see R. A. Hull et al. Br. J. Pharmacol. 1993, 108:734-740), a CCK-1 receptor selective antagonist that is structurally unrelated to the radioligand [^125I]-BH-CCK-8S. The assay preparation was incubated for 1 h at 21±3° C., and then the assay was terminated upon rapid filtration of the preparation under reduced pressure. The loaded filters were washed three times using undiluted PBS ([…]), and then the residues were transferred to 5 mL scintillation tubes. Bound radioactivity was determined using a gamma counter (count time=1 min). […] To validate the radioligand concentration and incubation time for the assay, saturation and kinetic binding studies were also conducted (see M. F. Morton, The Pharmacological Characterization of Cholecystokinin Receptors in the Human Gastrointestinal Tract. PhD Thesis, University of London, 2000). […] The assay was then terminated according to the procedure outlined above.
(§1) 3. Data Analysis for CCK1 and CCK2 Binding Assays
The pKi values were determined using the equation of Y.-C. Cheng and W. H. Prusoff (Biochem. Pharmacol., 1973, 22(23):3099-3108):
(§2) [formula] To circumvent problems associated with computer-assisted data analysis of compounds with low affinity, the data obtained in the current study were weighted according to a method described by Morton. In brief, 100% and 0% specific binding were defined independently using total binding and binding obtained in the presence of a high concentration of the reference antagonist, 2-NAP.

Assay [2] addresses T2, CCK2 receptor (Homo sapiens, UniProt P32239).
T2 construct: analyzed for ZFP expression as well as CCK2R induction upon addition of doxycycline to the culture medium; endogenous in cells
T2 sequence (P32239 1-447): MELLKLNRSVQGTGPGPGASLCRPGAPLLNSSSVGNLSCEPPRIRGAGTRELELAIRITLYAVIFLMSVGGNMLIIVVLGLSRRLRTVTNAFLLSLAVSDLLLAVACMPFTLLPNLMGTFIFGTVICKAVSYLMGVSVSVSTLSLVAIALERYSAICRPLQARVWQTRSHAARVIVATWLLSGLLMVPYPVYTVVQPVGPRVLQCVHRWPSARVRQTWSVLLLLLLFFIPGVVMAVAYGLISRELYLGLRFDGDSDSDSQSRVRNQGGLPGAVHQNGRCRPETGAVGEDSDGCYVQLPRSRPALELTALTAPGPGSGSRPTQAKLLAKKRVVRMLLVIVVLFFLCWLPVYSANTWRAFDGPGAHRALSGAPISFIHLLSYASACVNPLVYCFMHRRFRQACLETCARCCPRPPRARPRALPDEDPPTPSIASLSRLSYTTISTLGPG
In words: CCK2 binding assay ([125I]-BH-CCK-8S displacement, HEKZFP membranes). The conditions noted are these: membranes of doxycycline-induced HEKZFP cells; 20 pM [125I]-BH-CCK-8S; 60 min at 21±3° C.; read-out: CCK2 pKi (converted). The protocol:
2. CCK2 Assay Development and Data Generation
Zinc Finger Proteins (ZFP) specific for the CCK2R gene were identified by Sangamo Biosciences. The ZFP domain was fused with the herpes simplex virus VP16 activation domain, and the fusion protein was subsequently cloned into the pcDNA3 mammalian expression vector (Invitrogen, San Diego, Calif.). […] After 2 weeks of selection in culture medium containing […] Zeocin (Invitrogen), sixty drug-resistant stable clones were isolated and analyzed for ZFP expression as well as CCK2R induction upon addition of doxycycline to the culture medium.
HEKZFP cells were grown in DMEM supplemented with L-glutamine (2 mM), penicillin (50 units/mL) and streptomycin (50 μg/mL) and 10% FBS (v/v).
Membranes were prepared from the HEKZFP cells after induction. […] The thawed pellets were homogenized using a Polytron PT-10 (7×1 s). The homogenates were centrifuged for 5 min at 1500 rpm (600×g), and the resulting pellets were discarded. The supernatants were re-centrifuged in order to collect the receptor-membrane pellets (25 min 15,000 rpm; 39,800×g), which were re-suspended in buffer A.
The assay preparation was incubated for 1 h at 21±3° C., and then the assay was terminated by rapid filtration of the preparation under reduced pressure. The loaded filters were washed three times using undiluted PBS (100 μL), and then 100 μL of scintillation fluid was added to the filter plate. Bound radioactivity was determined using a Topcount (Packard BioScience, Meriden, Conn.) with a count time of 1 min. […] To validate the radioligand concentration and incubation time for the assay, saturation and kinetic binding studies were also conducted (see M. F. Morton, The Pharmacological Characterization of Cholecystokinin Receptors in the Human Gastrointestinal Tract. PhD Thesis, University of London, 2000). […] The assay was then terminated according to the procedure outlined above.
as §1
The pKi values were determined using the equation of Y.-C.
as §2

`CC(CNC(=O)c1ccc(I)cc1NS(=O)(=O)c1cccc2nccnc12)c1ccc(Cl)c(Cl)c1` (racemic) [Example 61, (±)-N-[2-(3,4-Dichloro-phenyl)-propyl]-4-iodo-2-(quinoxaline-5-sulfonylamino)-benzamide]: the figures for the Ki in assay [1] and in assay [2] were 126 nM and 398 nM, respectively.

For `O=C(N[C@@H](C(=O)O)[C@@H](O)c1ccc(Cl)c(Cl)c1)c1ccc(Cl)cc1NS(=O)(=O)c1cccc2nsnc12` (relative stereo) [Example 121, anti-2-[2-(Benzo[1,2,5]thiadiazole-4-sulfonylamino)-4-chloro-benzoylamino]-3-(3,4-dichloro-phenyl)-3-hydroxy-propionic acid], the Ki in assay [1] was 126 nM; in assay [2], 501 nM.

Take `Cc1ccc(CC(NC(=O)c2ccc(I)cc2NS(=O)(=O)c2cccc3nccnc23)C(=O)O)cc1` (stereo in doubt) [Example 79, (S)-2-[4-Iodo-2-(quinoxaline-5-sulfonylamino)-benzoylamino]-3-p-tolyl-propionic acid]: the Ki in assay [1] is 63.1 nM; in assay [2], 1260 nM.

Turning to `O=C(N[C@@H](Cc1ccccc1)C(=O)O)c1cc(Cl)c(Cl)cc1NS(=O)(=O)c1cccc2nsnc12` [Example 3, 2-[2-(Benzo[1,2,5]thiadiazole-4-sulfonylamino)-4,5-dichloro-benzoylamino]-3-phenyl-propionic acid], the results for the Ki in assay [1] and in assay [2] were 1000 nM and 39.8 nM, respectively.

`O=C(N[C@@H](Cc1cccc(Br)c1)C(=O)O)c1ccc(I)cc1NS(=O)(=O)c1cccc2nsnc12` [Example 4, (S)-2-[2-(Benzo[1,2,5]thiadiazole-4-sulfonylamino)-4-iodo-benzoylamino]-3-(3-bromo-phenyl)-propionic acid]: the Ki was 631 nM in assay [1] and 5.01 nM in assay [2].

Consider `CC(CNC(=O)c1ccc(Br)cc1NS(=O)(=O)c1cccc2nsnc12)c1ccc(Cl)c(Cl)c1` (stereo not shown) [Example 5, 2-(Benzo[1,2,5]thiadiazole-4-sulfonylamino)-4-bromo-N-[2-(3,4-dichloro-phenyl)-propyl]-benzamide], for which the Ki in assay [1] is 15.8 nM; in assay [2] it was 316 nM.

On to `COC(=O)[C@H](Cc1ccc(Br)s1)NC(=O)c1ccc(Cl)cc1NS(=O)(=O)c1cccc2nccnc12` [Example 8, (S)-3-(5-Bromo-thiophen-2-yl)-2-[4-chloro-2-(quinoxaline-5-sulfonylamino)-benzoylamino]-propionic acid methyl ester], for which the Ki was 3160 nM in assay [1] and 501 nM in assay [2].

Take `O=C(N[C@@H](Cc1ccc2ccccc2c1)C(=O)O)c1ccc(Cl)cc1NS(=O)(=O)c1cccc2nccnc12` [Example 9, (S)-2-[4-Chloro-2-(quinoxaline-5-sulfonylamino)-benzoylamino]-3-naphthalen-2-yl-propionic acid]: the results for the Ki in assay [1] and in assay [2] were 158 nM and 398 nM, respectively.

Consider `NC(=O)[C@H](Cc1ccc(Cl)cc1)NC(=O)c1cc(Cl)c(Cl)cc1NS(=O)(=O)c1cccc2nsnc12` [Example 11, (S)-2-(Benzo[1,2,5]thiadiazole-4-sulfonylamino)-N-[1-carbamoyl-2-(4-chloro-phenyl)-ethyl]-4,5-dichloro-benzamide], for which the Ki in assay [1] is 398 nM; in assay [2], 316 nM.

Turning to `C[C@H](CN1C(=O)c2cc(Br)cc(NS(=O)(=O)c3cccc4nsnc34)c2C1=O)c1ccccc1` [Example 13, (S)-Benzo[1,2,5]thiadiazole-4-sulfonic acid [6-bromo-1,3-dioxo-2-(2-phenyl-propyl)-2,3-dihydro-1H-isoindol-4-yl]-amide], the Ki in assay [1] was 1260 nM; in assay [2], 631 nM.

Take `O=C(N[C@H](Cc1ccc(Cl)cc1)C(=O)O)c1cc(Cl)c(Cl)cc1NS(=O)(=O)c1cccc2nsnc12` [Example 14, (R)-2-[2-(Benzo[1,2,5]thiadiazole-4-sulfonylamino)-4,5-dichloro-benzoylamino]-3-(4-chloro-phenyl)-propionic acid]: the values for the Ki in assay [1] and in assay [2] were 12.6 nM and 316 nM, respectively.

Regarding `O=C(N[C@H](Cc1ccc(Cl)cc1)C(=O)O)c1ccc(I)cc1NS(=O)(=O)c1cccc2nccnc12` [Example 15, (R)-3-(4-Chloro-phenyl)-2-[4-iodo-2-(quinoxaline-5-sulfonylamino)-benzoylamino]-propionic acid], the figures for the Ki in assay [1] and in assay [2] were 39.8 nM and 200 nM, respectively.

As for `O=C(N[C@H](Cc1ccccc1)C(=O)O)c1ccc(I)cc1NS(=O)(=O)c1c(F)cccc1F` [Example 17, (R)-2-[2-(2,6-Difluoro-benzenesulfonylamino)-4-iodo-benzoylamino]-3-phenyl-propionic acid], the Ki in assay [1] is 79.4 nM; in assay [2], 2510 nM.

Take `CN(CCc1ccccc1)C(=O)c1ccc(Br)cc1NS(=O)(=O)c1cccc2nsnc12` [Example 20, 2-(Benzo[1,2,5]thiadiazole-4-sulfonylamino)-4-bromo-N-methyl-N-phenethyl-benzamide]: the Ki in assay [1] is 2000 nM; in assay [2], 100 nM.

The record behind these values is US7855292B2, “Sulfonamide compounds” (Janssen Pharmaceutica NV, priority 2004, dated 2010).
